# Entries after “also recorded” stand apart in the source; their conditions may differ.
# Columns and labels:
# [1] = tested on: lung primary cells; assay: phage binding assay on lung primary cells; design: species or system mice
# Description: Phage binding to primary cells was performed as follows. Briefly, Balb/c mice (Harlan Sprague Dawley) were anesthetized with 0.017 ml/g of Avertin as described in Gardner et al., Lab. […] Under deep anesthesia, mice were perfused through the heart with 10 ml Dulbecco's modified Eagle's medium (DMEM; Irvine Scientific; Santa Ana, Calif.). The lungs, kidneys and brain were then collected, minced, placed in 2 ml of DMEM containing 0.5% BSA (Intergen; Purchase, N.Y.) and 0.5 μg/ml collagenase V (SIGMA) and incubated at 37° C. for 25 minutes. Following collagenase treatment, the tissue was forced through a […] pore cell strainer (Becton Dickinson; Franklin Lake, N.J.). The filtered cells were washed once with 10 ml DMEM supplemented with 10% serum.
# For the binding reaction, 10^9 transducing units (TU) of phage were incubated with 5×10^6 cells in 1 ml DMEM supplemented with 10% serum. The binding was performed at 4° C. for 2 hours with gentle agitation. After the binding reaction, the cells were washed four times with 1 ml of DMEM supplemented with 10% serum at room temperature for 5 to 10 minutes each time. The cells were centrifuged, and the cell pellet resuspended in 100 μl of DMEM and transferred to a new tube. […] The bacteria were then diluted in 10 ml of LB culture media supplemented with 0.2 μg/ml tetracycline, and incubated for another 30 minutes at room temperature. Serial dilutions of the bacterial culture were plated on LB plates containing 40 μg/ml tetracycline. Plates were incubated at 37° C. overnight before the colonies were counted (transducing units, TU).
# [2] = tested on: primary brain cells; assay: phage binding assay on primary brain cells; design: species or system mice; conditions: in vitro
# Description: Phage binding to primary cells was performed as follows. Briefly, Balb/c mice (Harlan Sprague Dawley) were anesthetized with 0.017 ml/g of Avertin as described in Gardner et al., Lab. Animal Sci. 45:199-204 (1995), which is incorporated herein by reference. Under deep anesthesia, mice were perfused through the heart with 10 ml Dulbecco's modified Eagle's medium (DMEM; Irvine Scientific; Santa Ana, Calif.). The lungs, kidneys and brain were then collected, minced, placed in 2 ml of DMEM containing 0.5% BSA (Intergen; Purchase, N.Y.) and 0.5 μg/ml collagenase V (SIGMA) and incubated at 37° C. for 25 minutes. Following collagenase treatment, the tissue was forced through a […] pore cell strainer (Becton Dickinson; Franklin Lake, N.J.). The filtered cells were washed once with 10 ml DMEM supplemented with 10% serum. […] To ensure an equal input of the different phage to be tested, phage were titered several times using K91Kan bacteria (Smith and Scott, supra, 1993).
# For the binding reaction, 10^9 transducing units (TU) of phage were incubated with 5×10^6 cells in 1 ml DMEM supplemented with 10% serum. The binding was performed at 4° C. for 2 hours with gentle agitation. […] Plates were incubated at 37° C. overnight before the colonies were counted (transducing units, TU).
# [3] = tested on: C8161 human melanoma cells; assay: experimental lung metastasis of C8161 human melanoma cells; format: in vivo, mice; conditions: 10^5 C8161 cells coadministered with 250 μg peptide, tail vein; five weeks after injection; listed as GFE-1
# Description: Experimental lung metastasis was induced in mice using C8161 human melanoma cells essentially as described in Arap et al., Science 279:377-380 (1998) and Pasqualini et al., Nature Med. 11:1197-1203, each of which is incorporated herein by reference. Briefly, C8161 cells were cultured to 75% confluence and then collected with 2.5 mM EDTA/PBS. The C8161 cancer cells were injected into the tail vein of female nude BALB/c mice (two months old) at a concentration of 10^5 cells per animal. Two sets of five mice were injected with the cells alone; cells with 250 μg control CARAC peptide (SEQ ID NO: 443) or cells with 250 μg GFE-1 peptide (SEQ ID NO: 1). Each injection was in a total volume of 200 μl.
# Mice were sacrificed five weeks after injection, and the lungs collected and weighed.
sequence,measurement,setting,value
CGFECVRQCPERC [lung homing peptide],inhibition of GFE-1 phage binding to lung cells,[1]; 150 μM peptide,~70%
same,phage bound by primary lung cells relative to insertless fd-tet phage,"[1]; 10^9 TU phage, 5×10^6 cells, 4° C., 2 hours",about 60 fold
same,phage binding to primary brain cells,[2],no specific binding
same,lung metastasis (lung weight),[3],inhibit experimental lung metastasis; also recorded: significantly less; also recorded: inhibits lung metastasis of human melanoma cells

# From patent publication US6784153B1, “Methods of homing molecules to lung using membrane dipeptidase” (The Burnham Institute, priority 1998, dated 2004)
